From patent publication US9561231B2 (AbbVie Inc., priority 2012, dated 2017)
Like-named read-outs stand apart in the source and are kept apart here. Marks after values point to notes of the source that are not given here.

Experiments:
[1] = target: T1, first (BD1: amino acids K57-E168) bromodomain of BRD4 (Homo sapiens, UniProt O60885); experiment: TR-FRET bromodomain binding assay, BRD4 BD1; details: Ki calculated from IC50, probe Kd and probe concentration, read-out: TR-FRET Binding Ki: BRD4 (BDI_K57-E168)
T1 construct: His-tagged first (BD1: amino acids K57-E168)
Procedure, shortened: (§1)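 Displacement of an Alexa647-labelled BET-inhibitor from His-tagged BD1 (K57-E168) or BD2 ([…]) measured by TR-FRET in pH 6.0 sodium phosphate buffer with NaCl, EDTA, Triton X-100 and DTT.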

[2] = target: T2, second (BD2: amino acids E352-E168) bromodomain of BRD4 (Homo sapiens, UniProt O60885); experiment: TR-FRET bromodomain binding assay, BRD4 BD2; details: Ki calculated from IC50, probe Kd and probe concentration, read-out: TR-FRET Binding Ki: BRD4 (BDII_E352-M457)
T2 construct: protocol
Procedure, shortened: as §1

[3] = system: breast cancer cell line MX-1; experiment: MX-1 cell line proliferation assay (3-day); type: cell-based; details: Homo sapiens, MX1, MX-1 cells, Cell Titer Glo, read-out: Cellular proliferation: EC50
Procedure, shortened: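 EC50 derived by sigmoidal fitting of Cell Titer Glo signal relative to DMSO controls. Compound, 3 μM down to 0.0001 μM final in 3-fold steps, was added to adhered MX-1 cells (5000/well, RPMI + 10% FBS) for a 3-day incubation at 37° C.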

[4] = system: OPM-2 human multiple myeloma cancer xenograft; experiment: Xenograft tumor growth inhibition assay: OPM-2; type: in vivo, SCID-beige female mice
[5] = system: LPS induced IL-6 production; experiment: LPS (lipopolysaccharide) induced IL-6 production mouse assay; details: 1 h before LPS 2.5 mg/kg i.p., serum IL-6 2 h after LPS, p<0.05
[6] = system: MX-1 human breast cancer xenograft; experiment: Xenograft tumor growth inhibition assay: MX-1
[7] = system: MV4-11 human AML xenograft; experiment: Xenograft tumor growth inhibition assay: MV4-11; type: in vivo, SCID-beige female mice; details: QDx14, tumor volumes study day 31
[8] = TR-FRET assay protocol (A-G, compound concentration range)
[9] = 3 mg/kg/day PO, QDx21, endpoint 1000 mm^3
[10] = 1 mg/kg/day PO, QDx21, endpoint 1000 mm^3
[11] = 3 mg/kg/day PO, QDx21, tumor volumes study day 27
[12] = 30 mg/kg/day PO, QDx14, endpoint 1000 mm^3
[13] = TR-FRET assay protocol (D, E or G) per compound

Row | Compound | Ki [1, 8] | Ki [2, 8] | EC50 ([3]; 72 h incubation) | Inhibition of LPS induced IL-6 production, % inhibition ([5]; 3 mg/kg oral) | other results
1 | COc1cc(=O)n(C)cc1-c1cc(NS(C)(=O)=O)ccc1Oc1ccc(F)cc1F [Example 270, N-[4-(2,4-difluorophenoxy)-3-(4-methoxy-1-methyl-6-oxo-1,6-dihydropyridin-3-yl)phenyl]methanesulfonamide] | 25.6 nM | 10.9 nM | 138 nM | 68.8 @ 3 mg/kg % | % TGI (tumor growth inhibition) ([4]; 3 mg/kg/day PO, QDx21): 42* %; % TGD (tumor growth delay) [4, 9]: 17%; % TGI (tumor growth inhibition) ([4]; 10 mg/kg/day PO, QDx21): 60%; % TGD (tumor growth delay) ([4]; 10 mg/kg/day PO, QDx21, endpoint 1000 mm^3): 59** %
2 | CCS(=O)(=O)Nc1ccc(Oc2ccc(F)cc2F)c(-c2cn(C)c(=O)cc2OCC(F)(F)F)c1 [Example 293, N-{4-(2,4-difluorophenoxy)-3-[1-methyl-6-oxo-4-(2,2,2-trifluoroethoxy)-1,6-dihydropyridin-3-yl]phenyl}ethanesulfonamide] | 37.1 nM | 5.99 nM | 115 nM | 71.0 @ 3 mg/kg % | % TGD (tumor growth delay) [6, 10]: 11%; % TGI (tumor growth inhibition) ([6]; 1 mg/kg/day PO, QDx21, tumor volumes study day 27): 6%; % TGD (tumor growth delay) [6, 9]: 42%; % TGI (tumor growth inhibition) [6, 11]: 56* %
3 | Cn1cc(-c2cc(NS(C)(=O)=O)ccc2Oc2ccc(F)cc2F)ccc1=O [Example 240, N-[4-(2,4-difluorophenoxy)-3-(1-methyl-6-oxo-1,6-dihydropyridin-3-yl)phenyl]methanesulfonamide] | 28.2 nM | 107 nM | 285 nM | – | % TGI (tumor growth inhibition) ([7]; 3 mg/kg/day PO): 0%; % TGI (tumor growth inhibition) ([7]; 10 mg/kg/day PO): 23%; % TGI (tumor growth inhibition) ([7]; 30 mg/kg/day PO): 65^b** %; % TGI (tumor growth inhibition) ([4]; 30 mg/kg/day PO, QDx14): 36** %; % TGD (tumor growth delay) [4, 12]: 113** %; % TGD (tumor growth delay) ([6]; 3 mg/kg/day PO, QDx14, endpoint 1000 mm^3): 20%; % TGI (tumor growth inhibition) ([6]; 3 mg/kg/day PO, QDx14, tumor volumes study day 27): 40* %; % TGD (tumor growth delay) ([6]; 10 mg/kg/day PO, QDx14, endpoint 1000 mm^3): 35** %; % TGI (tumor growth inhibition) ([6]; 10 mg/kg/day PO, QDx14, tumor volumes study day 27): 55*** %; % TGD (tumor growth delay) [6, 12]: 51*** %; % TGI (tumor growth inhibition) ([6]; 30 mg/kg/day PO, QDx14, tumor volumes study day 27): 61*** %; Inhibition of LPS induced IL-6 production, % inhibition ([5]; 30 mg/kg oral): 72.6 @ 30 mg/kg %
4 | CCOc1cc(=O)n(C)cc1-c1cc(NS(=O)(=O)CC)ccc1Oc1ccc(Cl)cc1 [Example 400, N-[4-(4-chlorophenoxy)-3-(4-ethoxy-1-methyl-6-oxo-1,6-dihydropyridin-3-yl)phenyl]ethanesulfonamide] | – | – | – | 66.4 @ 3 mg/kg % | Ki [1, 13]: 7.21 nM; Ki [2, 13]: 1.81 nM; EC50 ([3]; 72 hours with compound): 18.1 nM
5 | CCOc1cc(=O)n(C)cc1-c1cc(S(=O)(=O)C(C)C)ccc1Oc1ccc(F)cc1F [Example 369, 5-[2-(2,4-difluorophenoxy)-5-(propan-2-ylsulfonyl)phenyl]-4-ethoxy-1-methylpyridin-2(1H)-one] | 5.29 nM | 2.42 nM | 28.1 nM | 38.0 @ 3 mg/kg % | –
6 | CCOc1cc(=O)n(C)cc1-c1cc(NS(=O)(=O)CC)ccc1Oc1ccc(F)cc1F [Example 285, N-[4-(2,4-difluorophenoxy)-3-(4-ethoxy-1-methyl-6-oxo-1,6-dihydropyridin-3-yl)phenyl]ethanesulfonamide] | – | – | – | 84.0 @ 3 mg/kg % | % TGD (tumor growth delay) [6, 9]: 140^d** %; % TGI (tumor growth inhibition) [6, 11]: 84^d*** %
7 | CCOc1cc(=O)n(C)cc1-c1cc(S(=O)(=O)CC)ccc1OCC1CC1(F)F (stereo not shown) [Example 368, 5-{2-[(2,2-difluorocyclopropyl)methoxy]-5-(ethylsulfonyl)phenyl}-4-ethoxy-1-methylpyridin-2(1H)-one] | 19.6 nM | 28.6 nM | 96.2 nM | 72.4 @ 3 mg/kg % | –

More lines, main results first:

Row | Ki [1, 8] | Ki [2, 8] | EC50 ([3]; 72 h incubation) | Compound | Inhibition of LPS induced IL-6 production, % inhibition ([5]; 3 mg/kg oral) | other results
8 | 9.76 nM | 1.55 nM | 47.3 nM | CCS(=O)(=O)Nc1ccc(Oc2ccc(F)cc2F)c(-c2cn(C)c(=O)cc2OC)c1 [Example 271, N-[4-(2,4-difluorophenoxy)-3-(4-methoxy-1-methyl-6-oxo-1,6-dihydropyridin-3-yl)phenyl]ethanesulfonamide] | 76.9 @ 3 mg/kg % | % TGI (tumor growth inhibition) ([4]; 1 mg/kg/day PO, QDx21): 66* %; % TGD (tumor growth delay) [4, 10]: 51*** %; % TGI (tumor growth inhibition) ([4]; 3 mg/kg/day PO, QDx21): 73* %; % TGD (tumor growth delay) [4, 9]: 93*** %
9 | 7.8 nM | 7.61 nM | 52.6 nM | CCOc1cc(=O)n(C)cc1-c1cc(NS(=O)(=O)CC)ccc1Oc1ccc(C#N)cc1 [Example 358, N-[4-(4-cyanophenoxy)-3-(4-ethoxy-1-methyl-6-oxo-1,6-dihydropyridin-3-yl)phenyl]ethanesulfonamide] | 60.5 @ 3 mg/kg % | –
